Experimental data reported in patent US20160235068A1, “CONTROLLED RELEASE PARTICLES, PRODUCTION METHOD THEREOF, MOLDING MATERIAL, AND MOLDED ARTICLE” (priority 2013, published 2016).
≈ marks a conversion by molar mass, not a printed value.

How the values were obtained:
[1] = cited from earlier work
[2] = Alkali-resistance test (Test A), suspending agent of controlled release particles; format: physicochemical; details: 168 h, 0.05 %
Description: 1 mL of the diluted suspending agent was weighed in a glass bottle, and 4 mL of a saturated calcium hydroxide solution was added thereto, thereby preparing a test solution. The test solution was allowed to stand in a constant temperature of 40° C.
After 7 days from allowing the test solution to stand, 5 mL of acetonitrile was added to the test solution, the antibiotic compound was extracted, the amount of the antibiotic compound was determined with HPLC, and the remaining ratio of the antibiotic compound was calculated.

| SMILES | solubility to water [1] [µg/mL] | Alkali-resistance (Test A) Remaining ratio (%) of antibiotic compound [2] [%] |
| --- | --- | --- |
| CN/C(=N\[N+](=O)[O-])NCc1cnc(Cl)s1 [Clothianidin, (E)-1-(2-chlorothiazole-5-ylmethyl)-3-methyl-2-nitroguanidine] | 330 (≈ 1320 µM) |  |
| O=[N+]([O-])NC1=NCCN1Cc1ccc(Cl)nc1 [Imidacloprid, 1-(6-chloro-3-pyridylmethyl)-N-nitroimidazolidin-2-ylideneamine] |  | 0 |
